Measured values: patent US9315847B2, “Automated transient image cytometry” (priority 2009, dated 2016)

Test system: NRVMs
Test: Toxicity of the nuclear label to NRVMs during dye loading
Type: cell-based, rat
Conditions: 200 ng/ml in loading solution, 25 minutes
Procedure: Sensitivity to intracellular calcium kinetics is a desirable goal for automated calcium transient image cytometry because it is desirable to distinguish healthy contractile ESCMs from background non-contractile stem cells. […] The cells were maintained 48 to 72 hrs prior to scanning. On the day of scanning, the cells were incubated with a 3 μM solution of the acetyoxymethylester form of an intracellular calcium indicator (either Fluo-4 AM or Fluo-3 AM) in the base media for 25 minutes. The plasma membrane permeable to the acetoxymethylester forms of Fluo-3 and Fluo-4, which are modified intracellularly by esterases to an impermeable form. The loading solution was also supplemented with 200 ng/ml Hoechst 33342 to label DNA within the nuclei. This concentration of Hoechst provides adequate label of the nuclei and was non-toxic under these conditions. Thus, the labeling procedure introduced a green-fluorescence channel fluorescent calcium indicator into the cytoplasm of the NRVMs (Fluo-4) and a blue-fluorescence channel nuclear stain (Hoechst). The nuclear channel was used for autofocus at each well; additionally, images obtained of the nuclei provided information regarding cellular position that was helpful in assigning boundaries between cells in the segmentation procedure applied to the green-channel images. […]

`CCOc1ccc(-c2nc3ccc(-c4nc5ccc(N6CCN(C)CC6)cc5[nH]4)cc3[nH]2)cc1` [Hoechst 33342] was tested, and the “toxicity of the nuclear label under loading conditions” value was “non-toxic”.
